Test [1] deals with endothelium-denuded rat aortic rings. Kind of test: cAMP and cGMP levels in endothelium-denuded aortic rings. The note with it: 10 µM. An excerpt:
1 S4 Table. […]
2 endothelium-denuded rat aortic rings.
Flavoring (fmol x mg-1) (fmol x mg-1)
4 En d o th e liu m-denuded rings, treated with test compounds as described in the
5 Materials and methods section of the main text, were freeze-clamped when maximal
6 relaxation had been reached. Rings were homogenized in 5% trichloroacetic acid
7 and analyzed for cAMP and cGMP by radioimmunoassay. Forskolin and DEA/NO
8 were used to induce maximal accumulation of cAMP and cGMP, respectively. Data
9 shown are mean values±SEM of 3 (forskolin and DEA/NO) or 6 (basal,
10 cinnamaldehyde and eugenol) rings; n.d., not determined, *p<0.05 vs. basal (ANOVA
11 and Dunnett's post hoc test).

In test [2] the target is T1, soluble guanylate cyclase (sGC) (Bos taurus, UniProt P16068+P19687).
T1 construct: The activity of sGC purified from bovine lung; from tissue; host or cells: bovine lung
T1 sequence (P19687 1-691): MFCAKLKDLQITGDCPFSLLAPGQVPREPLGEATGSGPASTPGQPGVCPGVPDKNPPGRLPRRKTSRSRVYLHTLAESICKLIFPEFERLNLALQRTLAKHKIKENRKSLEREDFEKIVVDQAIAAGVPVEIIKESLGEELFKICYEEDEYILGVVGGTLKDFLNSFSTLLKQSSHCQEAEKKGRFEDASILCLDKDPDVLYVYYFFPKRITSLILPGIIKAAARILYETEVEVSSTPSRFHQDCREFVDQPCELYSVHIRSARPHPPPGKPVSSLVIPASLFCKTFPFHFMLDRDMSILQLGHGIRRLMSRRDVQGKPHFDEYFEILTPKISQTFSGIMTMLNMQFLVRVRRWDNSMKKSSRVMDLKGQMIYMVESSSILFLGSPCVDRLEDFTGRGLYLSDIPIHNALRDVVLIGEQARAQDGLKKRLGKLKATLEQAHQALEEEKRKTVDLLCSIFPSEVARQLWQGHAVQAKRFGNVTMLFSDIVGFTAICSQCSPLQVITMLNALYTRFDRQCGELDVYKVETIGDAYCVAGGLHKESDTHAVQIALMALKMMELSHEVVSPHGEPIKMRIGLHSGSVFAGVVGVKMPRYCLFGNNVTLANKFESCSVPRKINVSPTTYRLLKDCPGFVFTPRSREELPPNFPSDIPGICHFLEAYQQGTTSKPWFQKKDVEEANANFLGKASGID
T1 sequence (P16068 1-619): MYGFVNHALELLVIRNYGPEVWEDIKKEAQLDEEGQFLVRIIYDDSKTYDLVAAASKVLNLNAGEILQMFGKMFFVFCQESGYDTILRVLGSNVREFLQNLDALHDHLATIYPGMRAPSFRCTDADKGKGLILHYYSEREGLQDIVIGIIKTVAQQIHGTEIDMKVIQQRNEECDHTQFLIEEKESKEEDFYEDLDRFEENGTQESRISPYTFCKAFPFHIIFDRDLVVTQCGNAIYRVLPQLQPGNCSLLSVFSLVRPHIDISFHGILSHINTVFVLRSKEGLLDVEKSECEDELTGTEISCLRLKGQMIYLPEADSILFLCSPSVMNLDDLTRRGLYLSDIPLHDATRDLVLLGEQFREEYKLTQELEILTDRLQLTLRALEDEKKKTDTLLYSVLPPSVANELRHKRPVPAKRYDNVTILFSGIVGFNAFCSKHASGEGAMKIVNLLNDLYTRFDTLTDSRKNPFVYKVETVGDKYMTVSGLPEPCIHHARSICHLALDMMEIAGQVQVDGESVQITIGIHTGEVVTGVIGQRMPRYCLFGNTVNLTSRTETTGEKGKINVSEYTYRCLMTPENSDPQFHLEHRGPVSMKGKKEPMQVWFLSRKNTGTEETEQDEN
The test can be described thus: Activity of purified sGC stimulated with DEA/NO. The note with it: control. Type of test: biochemical, bovine. Here is the method: The activity of sGC purified from bovine lung was determined as formation of [^32P]cGMP from [α-^32P]GTP. The purified enzyme (50 ng) was incubated at 37°C for 10 min in a final volume of 0.1 ml in the absence or presence of flavorings with the NO donor DEA/NO at concentrations indicated in the figure legends, followed by isolation of [^32P]cGMP and quantification of radioactivity (Cerenkov radiation) in a β counter.
To test for reversibility of inhibition, sGC (50 ng) was preincubated in the absence or presence of the respective compounds for 5 minutes at 37°C, followed by 50-fold dilution in the assay mixtures and incubation with DEA/NO at 37°C for 10 minutes.

In test [3] the test system is rat aortic rings. Kind of test: Relaxation of U-46619 precontracted aortic rings to DEA/NO. As to conditions: read-out: EC50 of vascular relaxation to DEA/NO. Here is the method: (§1) Animal experiments were performed in compliance with the Austrian law on experimentation with laboratory animals (last amendment 2013) based on the European Union guidelines for the Care and the Use of Laboratory Animals (European Union Directive 2010/63/EU). Unsexed Sprague-Dawley rats (obtained from Charles River, Sulzfeld, Germany) were housed at the local animal facility in approved cages. They were fed standard chow (Altromin 3023; obtained from Königshofer Futtermittel, Ebergassing, Austria) and received water ad libitum. Animals were euthanized in a box that was gradually filled with CO2 until vital signs had ceased (cessation of respiration and circulation). […]
(§2) For isometric tension measurements, vessel rings with intact endothelium were suspended in 5-ml organ baths containing oxygenated Krebs-Henseleit buffer (concentrations in mM: NaCl 118.4, NaHCO3 25, KCl 4.7, KH2PO4 1.2, CaCl2 2.5, MgCl2 1.2, D-Glucose 11; pH 7.4), as previously described in detail. After equilibration for 60 min at the optimal resting tension of 20 mN, maximal contractile activity was determined with a depolarizing solution containing 60 mM K^+. […]
(§3) Effects are expressed as percent of relaxation of U-46619-induced contraction. Concentration-response curves of different ring segments from a single animal were averaged and counted as an individual experiment.

Test [4] concerns rat aortic rings. The test can be described thus: Relaxation of U-46619 precontracted aortic rings to acetylcholine. The note with it: vehicle, no flavoring, 95% CI, read-out: EC50 of vascular relaxation to acetylcholine. On the procedure:
as §1, §2, §3

Molecule `CCN(CC)[N+]([O-])=NO` [DEA/NO, 2,2-Diethyl-1-nitroso-oxyhydrazine, reference compound] returned a cGMP in test [1] of 4917±1483 fmol x mg-1. Besides, the “Maximal sGC activity with DEA/NO” value in test [2] (no flavoring) was 28±0.9 μmol cGMP x min^-1 x mg^-1. The EC50 in test [2] (no flavoring (0.1% DMSO), 95% CI, read-out: EC50 of DEA/NO for sGC stimulation) was determined as 37 nM; in the test with rat aortic rings [3], 43 nM.

`CC(=O)OCC[N+](C)(C)C` [acetylcholine]: the EC50 in the test on rat aortic rings [4] came to 55 nM.

The values are drawn from publication PMC6733504, “Effects of flavoring compounds used in electronic cigarette refill liquids on endothelial and vascular function” (PLoS ONE, 2019).
